Test results as given in patent US20240390434A1, “PROBIOTIC ENHANCERS AND USES THEREOF” (Blis Technologies Limited, priority 2021, published 2024).

Tests used:
Assay type in all cases: cell-based
[1] = tested on: L. lactis T-21; experiment: Dose response deferred antagonism assay, producer M18; conditions: 0.1% (w/v) raffinose
[2] = tested on: indicator bacterial test strains; experiment: Inhibitory activity of freeze dried raw ingredient powder, K12; conditions: galactose 0.5% w/w; raffinose 2.5% w/w; or combination
Method: Method: The amount of raffinose and galactose used was calculated based on the volume of the area of the producer streak, (which was calculated to be 4.25 g) to allow for the absorption of the saccharides into the agar. Based on this, amount of 0.021 g (i.e. 0.5% w/w galactose of 4.25 g agar volume) of galactose, 0.11 g (i.e 2.5% w/w) of raffinose and the combination of galactose (0.5% w/w) and raffinose (2.5% w/w) (0.13 g total) were weighed into sterile containers. K12 and/or M18 raw ingredient were suspended and diluted with sterile distilled water to a concentration of 1-2×10^6 cfu/100 μl. Then, […] of K12 only, M18 only, and K12±M18 suspensions were spread as a 1 cm streak down the middle of a CABCa agar plate using a sterile spreader. […] Bacterial growth was then removed using a microscope slide, and the pH of the agar in the producer streak area was measured and adjusted to pH 6.5-7.5 using 0.5M sodium carbonate (pH 11) before surface sterilizing the plates with chloroform vapour. […] Zones of inhibition for each test organism were then measured in mm using a ruler. The amount of raffinose and galactose to be used was calculated based on the volume of the area of the producer streak, (which was calculated to be 4.25 g) to allow for absorption into the agar.

[3] = tested on: S. pneumoniae D39; experiment: Deferred antagonism assay, producer S. salivarius K12; conditions: for Zone of inhibition S. pneumoniae D39: K12
Method: (§1) 1-2 producer strain colonies were transferred from a stock plate into 900 μL of suspension solution using a fresh cotton swab. Following this, suspensions were vortexed, and a sample was inoculated onto solid culture media using a fresh cotton swab. The inoculation was a streak that runs diametrically across the agar plate in a 1.5 cm wide strip. The plate was then incubated. Following incubation all visible colonies were removed by swabbing them from the agar surface. The plates were then treated with chloroform by dispensing 2 ml of chloroform onto 4 cm×4 cm piece of cloth and sealing the inverted agar plate on top for 30 minutes. The plates were then air dried for 30 minutes following chloroforming. 1-2 indicator strain colonies were then transferred from a stock plate into complementary suspension solution. The suspensions were then vortexed, and a sample was inoculated onto the same agar surface. These samples were streaked in a perpendicular direction to the initial producer streak.
(§2) Each indicator streak was prepared with fresh a suspension containing cells from a corresponding stock plate containing the indicator strain of interest. Indicator strains suspension samples were transferred using a fresh cotton swab. Results were measured by qualitatively reviewing the subsequent (if any) sizes of the zones of inhibition (ZOI) of indicator strain colony growth. A positive result is when there is a distinctive reduction or complete inhibition of indicator colony growth on the culture medium.
(§3) CABCa agar plates containing various concentrations of saccharide were prepared according to the methods described in Method 1. Producer strains were transferred from stock agar plates into 900 μL THB using a fresh cotton swab. A plastic spread plater was cut to approximately 1.2 cm width and then dipped into ethanol and left to air dry to ensure sterility. A 100 μL sample of the producer strain suspension was then dispensed onto the agar surface in a straight line running diametrically across the agar surface in (approximately) 20 μL spots. The spots were spaced approximately 1.5 cm apart from each other. The plastic spreader was then used to evenly distribute the spots across the agar surface in a 1.5 cm wide strip. This step was taken to ensure an even producer streak was inoculated onto the agar surface and provided an approximate measure of the initial inoculum concentration. Separate plastic spreaders were used for samples containing different producer strains. The samples were left to soak into the agar surface until there was no visible liquid remaining on the agar surface (approximately 20 minutes). Following producer streak preparations, the deferred antagonism assay protocol was followed as per Method 2. Results were recorded by measuring the size of the zone of inhibition (ZOI) in mm.
(§4) A dose response assay was carried out according to method 3 above, except a 1.2 cm streak was used. For the individual saccharide testing the pH of the producer streak was adjusted after the growth of producer to change the acidic conditions.
(§5) A deferred antagonism assay was conducted using K12 or M18 raw ingredient suspended in Todd Hewitt broth (THB). This was spread as a 1.2 cm streak containing approximately 1-2×10^6 cfu down the middle of a CABCa control or CABCa galactose supplemented test plate. After 18 hrs growth at 37° C. with 5% CO2, bacterial growth was removed, and the pH of the agar in the initial streak was measured and adjusted to a pH of 6.5-7.5 using 0.5M sodium carbonate pH11 before sterilizing the agar surface using chloroform vapor. Bacterial test strains were suspended in i-THB before being swabbed across the plates perpendicular to the initial streak. Plates were incubated for a further 18 hrs incubation at 37° C. with 5% CO2 before measuring (mm) any zones of inhibition for each test strain, […]

[4] = tested on: S. aureus A222; experiment: as above; conditions: for Zone of inhibition S. aureus A222 / Inhibitory activity of S. salivarius K12 in presence of saccharides, S. aureus A222: K12
Method: as §1, §2, §3, §4, §5

[5] = tested on: S. pyogenes 71-698; experiment: as above; conditions: for Zone of inhibition S. pyogenes 71-698: K12
Method: as §1, §2, §3, §4, §5

[6] = tested on: indicator strains; experiment: Deferred antagonism assay, producer S. salivarius M18: total strains inhibited
Method: as §1, §2, §3, §4, §5

With OC[C@H]1O[C@H](OC[C@H]2O[C@H](O[C@]3(CO)O[C@H](CO)[C@@H](O)[C@@H]3O)[C@H](O)[C@@H](O)[C@@H]2O)[C@H](O)[C@@H](O)[C@H]1O [Raffinose, D-(+) Raffinose pentahydrate] the “L. lactis ZOI size” value [1] was 20 mm, the “inhibitory activity of freeze-dried raw ingredient powder of K12” value [2] was “induced the inhibitory activity” and the “inhibition by K12 of S. pneumoniae” value ([3]; 0.5 to 10% w/v raffinose) was “increase in inhibition”. For the same compound, the “Zone of inhibition S. pneumoniae D39” value ([3]; Raffinose 1.7% wt) was 5 mm, the “Zone of inhibition S. pneumoniae D39” value ([3]; Raffinose 1.7% wt, pH adjusted) was 10 mm and the “Zone of inhibition S. pneumoniae D39” value ([3]; Raffinose 2.5% wt) was 8 mm. For the same compound, the “Zone of inhibition S. pneumoniae D39” value ([3]; Raffinose 2.5% wt, pH adjusted) was 9 mm, the “Zone of inhibition S. pneumoniae D39” value ([3]; Raffinose 3.3% wt) was 10 mm and the “Zone of inhibition S. pneumoniae D39” value ([3]; Raffinose 3.3% wt, pH adjusted) was 7 mm. For the same compound, the “Zone of inhibition S. pneumoniae D39” value ([3]; Raffinose 5% wt) was 8 mm, the “Zone of inhibition S. pneumoniae D39” value ([3]; Raffinose 5% wt, pH adjusted) was 13 mm and the “Zone of inhibition S. pneumoniae D39” value ([3]; Raffinose 10% wt) was 10 mm. The “Zone of inhibition S. pneumoniae D39” value ([3]; Raffinose 10% wt, pH adjusted) was 10 mm, the “sensitivity of S. aureus A222 to K12” value ([4]; 1.25, 2.5, 5 and 10% w/v raffinose added) was “sensitive” and the “Zone of inhibition S. aureus A222” value ([4]; Raffinose 1.7% wt) was 12 mm. For the same compound, the “Zone of inhibition S. aureus A222” value ([4]; Raffinose 1.7% wt, pH adjusted) was 8 mm, the “Zone of inhibition S. aureus A222” value ([4]; Raffinose 2.5% wt) was 15 mm and the “Zone of inhibition S. aureus A222” value ([4]; Raffinose 2.5% wt, pH adjusted) was 15 mm. The “Zone of inhibition S. aureus A222” value ([4]; Raffinose 3.3% wt) was 16 mm, the “Zone of inhibition S. aureus A222” value ([4]; Raffinose 3.3% wt, pH adjusted) was 13 mm and the “Zone of inhibition S. aureus A222” value ([4]; Raffinose 5% wt) was 14 mm. The “Zone of inhibition S. aureus A222” value ([4]; Raffinose 5% wt, pH adjusted) was 14 mm, the “Zone of inhibition S. aureus A222” value ([4]; Raffinose 10% wt) was 13 mm and the “Zone of inhibition S. aureus A222” value ([4]; Raffinose 10% wt, pH adjusted) was 13 mm. The “Inhibitory activity of S. salivarius K12 in presence of saccharides, S. aureus A222” value ([4]; saccharide 3.3% w/v) was “✓”, the “Inhibitory activity of S. salivarius K12 in presence of saccharides, S. aureus A222” value ([4]; saccharide range 2.5%-10% w/v) was “✓” and the “inhibition by K12 of S. pyogenes” value ([5]; 0.5 to 10% w/v raffinose) was “increase in inhibition”. The “Zone of inhibition S. pyogenes 71-698” value ([5]; Raffinose 1.7% wt) was 10 mm, the “Zone of inhibition S. pyogenes 71-698” value ([5]; Raffinose 1.7% wt, pH adjusted) was 4 mm and the “Zone of inhibition S. pyogenes 71-698” value ([5]; Raffinose 2.5% wt) was 9 mm. For the same compound, the “Zone of inhibition S. pyogenes 71-698” value ([5]; Raffinose 2.5% wt, pH adjusted) was 3 mm, the “Zone of inhibition S. pyogenes 71-698” value ([5]; Raffinose 3.3% wt) was 11 mm and the “Zone of inhibition S. pyogenes 71-698” value ([5]; Raffinose 5% wt) was 7 mm. The “Zone of inhibition S. pyogenes 71-698” value ([5]; Raffinose 5% wt, pH adjusted) was 1 mm, the “Zone of inhibition S. pyogenes 71-698” value ([5]; Raffinose 10% wt) was 3 mm and the “Zone of inhibition S. pyogenes 71-698” value ([5]; Raffinose 10% wt, pH adjusted) was 3 mm. For the same compound, the “Total number of strains inhibited” value ([6]; Raffinose 1.7% wt) was 6, the “Total number of strains inhibited” value ([6]; Raffinose 1.7% wt, pH adjusted) was 6 and the “Total number of strains inhibited” value ([6]; Raffinose 2.5% wt) was 7. The “Total number of strains inhibited” value ([6]; Raffinose 2.5% wt, pH adjusted) was 6, the “Total number of strains inhibited” value ([6]; Raffinose 3.3% wt) was 6 and the “Total number of strains inhibited” value ([6]; Raffinose 3.3% wt, pH adjusted) was 6. The “Total number of strains inhibited” value ([6]; Raffinose 5% wt) was 7, the “Total number of strains inhibited” value ([6]; Raffinose 5% wt, pH adjusted) was 6 and the “Total number of strains inhibited” value ([6]; Raffinose 10% wt) was 2. For the same compound, the “Total number of strains inhibited” value ([6]; Raffinose 10% wt, pH adjusted) was 1.
